Experimental data: patent publication US20190166840A1, “SUBSTITUTED PYRAZOLINYL DERIVATIVES, PROCESSES FOR THEIR PREPARATION AND THEIR USE AS HERBICIDES AND/OR PLANT GROWTH REGULATORS” (BAYER CROPSCIENCE AKTIENGESELLSCHAFT, priority 2016, published 2019)
Values belong to the compound of their own block, whether it stands above or below them.

How the values were obtained:
photosystem II (PS II) = biological target: T1, photosystem II (PS II) (Spinacia oleracea, UniProt P69560); experiment: Activity determination of photosystem II (PS II) in thylakoid membranes, DCPIP reduction; assay type: biochemical; details: spinach thylakoid membranes, DCPIP 120 μM, 10 min at 22° C. with illumination
T1 construct: the chloroplasts were osmotically ruptured and the thylakoid membranes were then obtained by centrifugation; from tissue; host or cells: spinach leaves (thylakoid membrane preparation)
Method: Measurement of PS II Activity in Thylakoid Membranes
1. Preparation of the Thylakoid Membranes
Cooled fresh spinach leaves were comminuted and homogenized in 50 mM phosphate buffer, pH 6.8, 10 mM KCl, 0.34 M sucrose (sucrose buffer) (mixer, 1 g of plant material/ml). The homogenate was subsequently filtered through 4 layers of Miracloth and the chloroplasts were obtained by centrifugation: • 10 minutes (min) of centrifugation at 4400×g (4° C.). • The sediment was suspended in 25 ml of sucrose buffer and centrifuged for another 10 min at 4400×g (4° C.). • The sediment was then suspended in 40 ml of 50 mM phosphate buffer, pH 6.8, 10 mM KCl, without sucrose. • In this step, the chloroplasts were osmotically ruptured and the thylakoid membranes were then obtained by centrifugation (10 min, 4400×g, 4° C.). The membrane sediment was finally suspended in about 20 ml of 50 mM phosphate buffer, pH 6.8, 10 mM KCl. • After protein determination and activity determination, the membrane suspension was aliquoted and frozen in liquid nitrogen. The aliquots were stored at −80° C. Under these conditions, the photosystem II preparation is storage-stable for at least three months.
2. Activity Determination of the Photosystem II (PS II)
The electron transfer from PS II to an artificial electronic captor, 2,6-dichlorophenol-indophenol (DCPIP), is measured under the action of light. The concentration of the blue oxidized form of DCPIP can be determined spectraphotometrically at the wavelength l=595 nm. The enzyme-catalyzed reduction of DCPIP results in a colourless leuco form and thus to a decrease of absorption at 595 nm in the reaction batch, which is measured as a function of time.
The activity determination was carried out in microtiter plates (96 wells) in a reaction volume of 200 μl. 155 μl of dilute membrane suspension in 50 mM phosphate buffer, pH 6.8, 10 mM KCl were initially charged. Depending on the activity of the PS II preparation, the dilution was adjusted such that measurement of the decrease in absorption (λ=595 nm) was linear for at least 10 min.
Typical dilution series of the test compounds comprised 10 concentration steps in the range between 10^−9and 10^−5 M.
On each microtiter plate, a known PS II inhibitor, e.g. metribuzin, was used as standard for assessing the quality of the PS II test.
The reaction was initiated by addition of 40 μl DCPIP solution (600 μM in distilled water); the final concentration of DCPIP was 120 μM.
Absorption was measured over a period of 10 min at 22° C. and with illumination. For calculating the active compound concentration at which 50% of the enzyme activity is inhibited (IC50), the relative enzymatic activity (in %) was plotted as a function of the logarithm of the active compound concentration.

Ipomoea purpurea = experiment: Post-emergence herbicidal action, PHBPU; assay type: in vivo; details: one-leaf stage, application rate 1280 g/ha, scored visually after about 3 weeks
Method: (§1) Post-Emergence Herbicidal Activity Seeds of mono- and dicotyledonous weed plants and crop plants were placed in sandy loam in wood fibre pots, covered with soil and then cultivated in a greenhouse under good growth conditions. Two to 3 weeks after sowing, the test plants were treated at the one-leaf stage, with the formulated compounds of the general formula (I) according to the invention being sprayed as an aqueous suspension or emulsion at an application rate of 600 l of water/ha (converted) with addition of 0.2% wetting agent, onto the green parts of the plants. After the test plants had been left to stand in the greenhouse for about 3 weeks under optimum growth conditions, the activity of the preparations was scored visually in percent in comparison to untreated controls. For example, 100% activity=the plants have died, 50% herbicidal activity or damage=plants reduced to 50% or plant material reduced by 50%, 0% activity=like control plants. […] Here, the herbicidal action of the compounds of the general formula (I) according to the invention was examined for the following harmful plants: PHBPU=Ipomoea purpurea The respective herbicidal action was in each case determined at the same point in time after application of the formulation in question, i.e. damage of the harmful plant in question in %. […]

Viola tricolor = experiment: Post-emergence herbicidal action, VIOTR; assay type: in vivo; details: one-leaf stage, application rate 1280 g/ha, scored visually after about 3 weeks
Method: as §1, with “VIOTR=Viola tricolor” for “PHBPU=Ipomoea purpurea”

[1] = test system: Polygonum convolvulus (=Fallopia convolvulus); experiment: Post-emergence herbicidal action, POLCO; assay type: in vivo; details: one-leaf stage, application rate 1280 g/ha, scored visually after about 3 weeks
Method: as §1, with “POLCO=Polygonum convolvulus (=Fallopia convolvulus)” for “PHBPU=Ipomoea purpurea”

Setaria viridis = experiment: Post-emergence herbicidal action, SETVI; assay type: in vivo; details: one-leaf stage, application rate 1280 g/ha, scored visually after about 3 weeks
Method: as §1, with “SETVI=Setaria viridis” for “PHBPU=Ipomoea purpurea”

SMILES: CC1=C(C)C(O)N(C2=NN(Cc3ccccc3)C(C)(C)C2)C1=O (stereo not drawn) [I.2-217]
pI50 (photosystem II (PS II)): 5.4

SMILES: CC1=C(C)C(O)N(C2=NN(c3ccccc3)C(C)C2)C1=O (stereo not drawn) [I.2-321]
IC50 (photosystem II (PS II); read-out: pI50 (converted)): 7.94 µM

SMILES: CC1=C(C)C(O)N(C2=NN(c3ccccn3)C(C)C2)C1=O (stereo not drawn) [I.2-432]
Post-emergence herbicidal action PHBPU, damage of the harmful plant (Ipomoea purpurea): 0%
Post-emergence herbicidal action VIOTR, damage of the harmful plant (Viola tricolor): 80%
Post-emergence herbicidal action POLCO, damage of the harmful plant [1]: 0%
Post-emergence herbicidal action SETVI, damage of the harmful plant (Setaria viridis): 80%

SMILES: CC1=C(Cl)C(=O)N(C2=NN(c3ccccc3)C(C)C2)C1O (stereo not drawn) [I.3-321]
pI50 (photosystem II (PS II)): 5.4

SMILES: CC1=C(Cl)C(=O)N(C2=NN(C)C(c3ccc(Cl)cc3)C2)C1O (stereo not drawn) [I.3-1351]
pI50 (photosystem II (PS II)): 5.5

Continued, in another order:

pI50 (photosystem II (PS II)): 5.3
SMILES: CC1=C(Br)C(=O)N(C2=NN(c3ccccc3)CC2)C1O (stereo not drawn) [I.8-621]
Post-emergence herbicidal action PHBPU, damage of the harmful plant (Ipomoea purpurea): 90%
Post-emergence herbicidal action VIOTR, damage of the harmful plant (Viola tricolor): 80%
Post-emergence herbicidal action POLCO, damage of the harmful plant [1]: 90%
Post-emergence herbicidal action SETVI, damage of the harmful plant (Setaria viridis): 60%

pI50 (photosystem II (PS II)): 5.1
SMILES: CC1=C(Br)C(=O)N(C2=NN(C)C(c3ccccc3)C2)C1O (stereo not drawn) [I.8-1126]

pI50 (photosystem II (PS II)): 5.7
SMILES: CC1=C(Br)C(=O)N(C2=NN(C)C(c3ccc(Cl)cc3)C2)C1O (stereo not drawn) [I.8-1351]
